# Where two headings read alike, the source gives them in different places.
# Key:
# [1] = target: Caspase-1 (Homo sapiens (Human), UniProt P29466); assay: Caspase-1 Inhibitor Drug Screening Kit, fluorometric (AFC liberation); assay type: biochemical; conditions: for IC50: 30-minute incubation at 37° C., approximations of the average values, read-out: Caspase enzymatic activity, IC50 (uM) Caspase 1
# Method: (§1) The level of inhibition of caspase-1, -3, -5, -7, -9 activity was determined by comparison of the relative fluorescence intensity in samples with or without the compound.
# [2] = target: Caspase-3 (Homo sapiens (Human), UniProt P42574); assay: Caspase-3 Inhibitor Drug Screening Kit, fluorometric (AFC liberation); assay type: biochemical
# Chain of Caspase-3 (P42574 29-277): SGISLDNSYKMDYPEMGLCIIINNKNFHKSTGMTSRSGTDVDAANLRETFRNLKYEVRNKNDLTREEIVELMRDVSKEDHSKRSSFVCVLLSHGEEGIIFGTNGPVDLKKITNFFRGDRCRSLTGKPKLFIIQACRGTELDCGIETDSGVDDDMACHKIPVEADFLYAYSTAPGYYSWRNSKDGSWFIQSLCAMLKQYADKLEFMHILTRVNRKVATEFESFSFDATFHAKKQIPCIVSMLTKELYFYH
# Method: as §1
# [3] = target: Caspase-5 (Homo sapiens (Human), UniProt P51878); assay: Caspase-5 Inhibitor Drug Screening Kit, fluorometric (AFC liberation); assay type: biochemical; conditions: for IC50: 30-minute incubation at 37° C., approximations of the average values, read-out: Caspase enzymatic activity, IC50 (uM) Caspase 5
# Chain of Caspase-5 (P51878 137-434): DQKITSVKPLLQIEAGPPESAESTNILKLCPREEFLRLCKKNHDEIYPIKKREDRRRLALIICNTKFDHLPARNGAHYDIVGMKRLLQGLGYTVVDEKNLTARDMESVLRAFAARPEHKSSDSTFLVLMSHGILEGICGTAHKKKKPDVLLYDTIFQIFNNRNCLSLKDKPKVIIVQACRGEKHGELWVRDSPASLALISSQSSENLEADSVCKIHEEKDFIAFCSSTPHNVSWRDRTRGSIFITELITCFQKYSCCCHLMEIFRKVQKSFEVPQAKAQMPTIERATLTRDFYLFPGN
# Method: as §1
# [4] = target: Caspase-7 (Homo sapiens (Human), UniProt P55210); assay: Caspase-7 Inhibitor Drug Screening Kit, fluorometric (AFC liberation); assay type: biochemical; conditions: 30-minute incubation at 37° C.; approximations of the average values; read-out: Caspase enzymatic activity, IC50 (uM) Caspase 7
# Chain of Caspase-7 (P55210 whole entry): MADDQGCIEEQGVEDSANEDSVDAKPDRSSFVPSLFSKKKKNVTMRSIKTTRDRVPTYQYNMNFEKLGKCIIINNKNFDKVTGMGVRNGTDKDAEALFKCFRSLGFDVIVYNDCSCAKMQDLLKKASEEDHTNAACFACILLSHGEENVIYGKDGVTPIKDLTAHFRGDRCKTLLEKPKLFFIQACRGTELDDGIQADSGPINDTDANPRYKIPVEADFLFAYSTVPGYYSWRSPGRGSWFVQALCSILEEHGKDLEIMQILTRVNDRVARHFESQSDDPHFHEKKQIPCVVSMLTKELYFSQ
# Method: as §1
# [5] = target: Caspase-9 (Homo sapiens (Human), UniProt P55211); assay: Caspase-9 Inhibitor Drug Screening Kit, fluorometric (AFC liberation); assay type: biochemical; conditions: for IC50: 30-minute incubation at 37° C., approximations of the average values, read-out: Caspase enzymatic activity, IC50 (uM) Caspase 9
# Chain of Caspase-9 (P55211 whole entry): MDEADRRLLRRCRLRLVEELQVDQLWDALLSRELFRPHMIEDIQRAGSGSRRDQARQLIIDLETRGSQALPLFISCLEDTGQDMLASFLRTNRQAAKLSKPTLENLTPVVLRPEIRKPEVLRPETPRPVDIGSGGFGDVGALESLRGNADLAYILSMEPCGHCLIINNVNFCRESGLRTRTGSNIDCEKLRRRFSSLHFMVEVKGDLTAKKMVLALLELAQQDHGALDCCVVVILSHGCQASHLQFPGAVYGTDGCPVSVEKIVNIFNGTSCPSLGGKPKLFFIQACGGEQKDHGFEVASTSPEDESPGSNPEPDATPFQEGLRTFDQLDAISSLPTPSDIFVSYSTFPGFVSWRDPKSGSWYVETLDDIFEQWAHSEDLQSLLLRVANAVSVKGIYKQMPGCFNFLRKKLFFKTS
# Method: as §1
# [6] = test system: Glo3/7; assay: Glo3/7 assay; assay type: biochemical
# [7] = test system: EAE in C57BL/6 mice; assay: Chronic EAE mouse model (MOG35-55 immunization), daily clinical score and body weight; assay type: in vivo; parameters: key to Delay in onset of the disease / Reduction in severity of the disease / Reduction in body weight loss: +++: high level improvement; ++: moderate improvement; +: small improvement; −: no improvement; conditions: for Delay in onset of the disease / Reduction in body weight loss / Reduction in severity of the disease: average overall effects on the EAE model, i.p.
# Text: The aim of this study was to verify the effectiveness of compounds in a chronic mouse animal model of EAE. EAE is a good proof-of-principle model of neurodegeneration since it encompasses degeneration or destruction of practically all the cells in the central nervous system, includes most major immunomodulatory components, and is able to maintain normal innate regenerative functions in the animal. This is a standard model (Antel J P et al., J Neurosci Res. 1997, 50: 345-353) used mainly to mimic the course evolution of Multiple Sclerosis (MS) in humans, and is commonly used for studying disease mechanisms and testing potential therapies. EAE is induced by immunization with myelin proteins, leading to development of myelin-specific T cells. These autoreactive T cells traffic into CNS parenchyma where they initiate an inflammatory cascade through recruitment of other cells such as monocytes and neutrophils. Accumulation of immune cells within CNS leads to myelin damage, axonal loss and clinical deficit in affected animals. EAE can be induced in a variety of species and strains of animals [mice, Rat, marmoset monkey, rhesus macaques] using various CNS antigens [Myelin Oligodendrocyte Glycoprotein (MOG), proteolipid protein (PLP) and myelin basic protein (MBP)]. Seven to 8 week old female C57BL/6 mice were purchased from Charles River Laboratories, and housed at MISPRO™ animal facility for one week before experimentation for adaptation to the new environment. All proper animal experimentation and ethics approvals were obtained prior to the start of any experiments. Mice were immunized subcutaneously with 100 μg of MOG35-55 (Sheldon Biotechnology Centre, McGill University) in CFA containing 5 mg/ml of desiccated (killed and dried) Mycobacterium tuberculosis H37Ra (Difco, Inc), at two sites on the back. The mice were then injected with 200 ng of pertussis toxin (List Biological Laboratories, Inc) in PBS intraperitoneally on days 0 and 2 using 25 gauge needles and scored daily using an EAE clinical scale as detailed below (Touil T et al., J Neurol Sci. 2008, 271:191-202; Antel J P et al., 1997, supra; Owens T et al., Curr Pharm Des. 2005, 1:1031-1037).
# EAE was clinically assessed throughout the experiments by daily scoring using a scale from 0 to 5 as follows: partial limp tail, 0.5; full limp tail, 1; limp tail and waddling gait, 1.5; paralysis of one hind limb, 2; paralysis of one hind limb and partial paralysis of other hind limb, 2.5; paralysis of both hind limbs, 3; ascending paralysis, 3.5; paralysis of trunk, 4; moribund, 4.5; death, 5. In all the EAE models a body weight loss is always associated with the clinical signs. This body weight loss is associated with the loss of the function and the paralysis of the muscle (atrophy inducing loss of weight). For animals showing a clinical sign of 2 or more, the food and the water were presented inside the cage to facilitate eating and drinking.
# At the onset of clinical signs of EAE, the mice were treated with 200 μl of Compound 51, 53, 57, 59, 101, 104, 105, 111 or 123 dissolved in 2.5% Dimethyl sulfoxide (DMSO) in PBS, while placebo groups were treated with 2.5% Dimethyl sulfoxide (DMSO) in PBS only, by intraperitoneal injection at different time of the clinical evolution.
# [8] = test system: proteolytic cleavage of PARP (poly ADP-ribose polymerase) in Hela cells; assay: Inhibition of staurosporine-induced PARP cleavage in live Hela cells; assay type: cell-based; conditions: Homo sapiens, HeLa
# Method: To test the efficacy of caspase-3 inhibitors at the cellular level, the ability of selected compounds to inhibit the proteolytic cleavage of PARP (poly ADP-ribose polymerase) was evaluated in live Hela cells.
# Briefly, in this assay Hela cells are seeded in 96 well plates and incubated for 4 hours with staurosporine, a well characterized inducer of apoptosis, alone or together with different concentrations of compound (50, 25, 10 and 3 uM). After formaldehyde-based fixation, the cells are stained with a fluorescein-labeled anti-cleaved PARP antibody (Cell signaling, Cat#: 9547) and counterstained with Hoechst33342 (Invitrogen, Cat#: H3570) to mark all nuclei. Fluorescence images are taken on a Cellomics™ microscope system (Thermo Scientific, Pittsburgh, USA) with the Hoechst stain in the blue channel and the cleaved PARP antibody stain in the green channel. The percentage of cleaved PARP positive cells is determined by calculating the ratio between nuclei with a cleaved PARP antibody staining above a certain threshold and all (Hoechst positive) nuclei. The efficacy of caspase-3 inhibition is determined by calculating the ratio between cleaved PARP positive cells after staurosporine incubation together with compounds and staurosporine incubation without compounds.
# [9] = 30-minute incubation at 37° C., approximations of the average values, read-out: Caspase enzymatic activity, IC50 (uM) Caspase 3
# [10] = FIG. 4, administration for 15 days from day 12 post-immunization, versus placebo
# [11] = FIG. 2, i.p. from day 10 to 16 post immunization, versus placebo
# [12] = at the tested dose-range (1 to 3333 nM)
# Chain of Caspase-1 (P29466 120-404): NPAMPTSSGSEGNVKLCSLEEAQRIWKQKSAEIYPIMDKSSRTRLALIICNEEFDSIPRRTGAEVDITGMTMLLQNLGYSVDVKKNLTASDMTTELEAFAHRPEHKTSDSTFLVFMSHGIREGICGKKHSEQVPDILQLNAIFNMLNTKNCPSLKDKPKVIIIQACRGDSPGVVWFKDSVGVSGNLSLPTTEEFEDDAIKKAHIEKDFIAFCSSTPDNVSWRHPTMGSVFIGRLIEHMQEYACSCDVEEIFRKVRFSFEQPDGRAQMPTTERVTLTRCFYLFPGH
Compound,IC50 [1],"IC50 [2, 9]",IC50 [3],IC50 [4],IC50 [5],IC50 [6],further results
"CC(C)(C)OC(=O)C[C@@H](/C=C/S(=O)(=O)c1ccccc1)NC(=O)OC(C)(C)C [Compound 36, Boc-Asp(O-tBu)VSphenyl]",> 3.33 µM,> 2 µM,> 3.33 µM,> 3.33 µM,> 3.33 µM,> 50 µM,
"CC(C)[C@H](NC(=O)[C@H](Cc1ccc2ccccc2n1)NC(=O)[C@H](CC(=O)O)NC(=O)OCc1ccccc1)C(=O)N[C@H](/C=C/S(=O)(=O)Oc1ccccc1)CC(=O)O [Compound 65, Z-Asp-Ala(2′-quinolyl)-Val-Aspphenoxy vinyl sulfone]",1.2 µM,0.01 µM,> 3.33 µM,0.4 µM,0.3 µM,0.2 µM,
"CC(C)[C@H](NC(=O)OCc1ccccc1)C(=O)N[C@H](/C=C/S(C)(=O)=O)CC(=O)O [Compound 61, z-Val-AspVSmethyl]",> 3.33 µM,> 3.33 µM,> 3.33 µM,> 3.33 µM,> 3.33 µM,50 µM,activity against caspase-3 [2]: abolished completely the activity
"CC(C)[C@H](NC(=O)[C@@H](NC(=O)[C@H](CC(=O)O)NC(=O)OCc1ccccc1)C1Cc2ccccc2C1)C(=O)N[C@H](/C=C/S(=O)(=O)C(C)C)CC(=O)O [Compound 68, Z-Asp-Indanylglycine-Val-Aspisopropyl Vinyl Sulfone]",> 3.33 µM,0.2 µM,> 3.33 µM,1.5 µM,> 3.33 µM,1.1 µM,
"COC(=O)CC[C@H](NC(=O)[C@H](CC(=O)OC)NC(=O)OCc1ccccc1)C(=O)N[C@H](C(=O)N[C@@H](CC(=O)OC)C(=O)CF)C(C)C [zDEVD-FMK, z-D(OMe)E(OMe)VD(OMe)FMK, reference compound]",,,,,,,"onset of the disease [7, 10]: delayed the onset; severity of the disease [7, 10]: reduced the severity of the disease"
"COC(=O)C[C@@H](/C=C(\Cl)S(C)(=O)=O)NC(=O)[C@@H](NC(=O)[C@@H](NC(=O)[C@H](CC(=O)OC)NC(=O)OCc1ccccc1)C1Cc2ccccc2C1)C(C)C [Compound 105, Z-Asp(β-methyl)-indanylglycine-Val-Asp(β-methyl)achlorovinyl Methylsulfone]",,,,,,,"Disease onset [7, 11]: delayed; Loss of body weight [7, 11]: less than placebo; severity of the disease [7, 11]: reduced significantly at the early stage of the disease; Delay in onset of the disease [7]: ++; Reduction in body weight loss [7]: ++; Reduction in severity of the disease [7]: +"
"CC(C)[C@H](NC(=O)C(Cc1ccc2ccccc2n1)NC(=O)[C@H](CC(=O)O)NC(=O)OCc1ccccc1)C(=O)N[C@H](/C=C/S(C)(=O)=O)CC(=O)O (stereo partly shown) [Compound 71, Z-Asp-(D,L Ala(2′-quinolyl))-Val-Aspmethyl Vinylsulfone]",> 10 µM,,> 10 µM,8.9 µM,> 10 µM,0.3 µM,"inhibition at 50 µM ([8]; 4 h, read-out: % inhibition of PARP cleavage at 50 uM compound, Hela cells, staurosporine 4 hours, 50 uM compound): 20%; inhibition at 50 µM ([8]; Hela cells, 50 uM, read-out: % of inhibition with compound relative to DEVDFMK): 35%"
"CC(C)[C@H](NC(=O)[C@H](Cc1c[nH]c2ccccc12)NC(=O)[C@H](CC(=O)O)NC(=O)OCc1ccccc1)C(=O)N[C@H](/C=C/S(C)(=O)=O)CC(=O)O [Compound 88, Z-Asp-Trp-Val-Aspmethyl vinyl sulfone]",0.7 µM,0.04 µM,> 3.33 µM,1.1 µM,> 3.33 µM,0.7 µM,IC50 ([2]; read-out: IC50 caspase-3): 0.03 to 0.09 µM
"CC(C)[C@H](NC(=O)C(Cc1ccc2ccccc2n1)NC(=O)[C@H](CC(=O)O)NC(=O)OCc1ccccc1)C(=O)N[C@H](/C=C/S(=O)(=O)c1ccccc1)CC(=O)O (stereo partly shown) [Compound 70, Z-Asp-(D,L Ala(2′-quinolyl))-Val-Aspphenyl Vinylsulfone]",> 3.33 µM,0.3 µM,> 10 µM,> 10 µM,> 10 µM,20 µM,
"COC(=O)C[C@@H](/C=C(\Cl)S(C)(=O)=O)NC(=O)[C@@H](NC(=O)[C@@H](NC(=O)[C@H](CC(=O)OC)NC(=O)OCc1ccccc1)c1ccccc1)C(C)C [Compound 104, Z-Asp(β-methyl)-phenylglycine-Val-Asp(β-methyl)achlorovinyl Methylsulfone]",,,,,,,"Disease onset [7, 11]: delayed; Loss of body weight [7, 11]: did not show and significant difference compared to placebo; severity of the disease [7, 11]: reduced significantly at the early stage of the disease; Delay in onset of the disease [7]: ++; Reduction in body weight loss [7]: −; Reduction in severity of the disease [7]: +"
"CC(C)[C@H](NC(=O)[C@H](Cc1ccc(OC(C)(C)C)cc1)NC(=O)OCc1ccccc1)C(=O)N[C@@H](C)C(=O)N[C@H](/C=C/S(=O)(=O)c1ccccc1)CC(=O)OC(C)(C)C [Compound 95, Z-Tyr(OtBu)- Val-Ala-Asp (OtBu) phenyl vinyl sulfone]",,,,,,,"effects on the clinical course of EAE ([7]; FIG. 3, i.p. from day 14 to 19 post immunization, versus placebo): ameliorating effects"
"CC(C)[C@H](NC(=O)[C@H](Cc1ccc2ccccc2n1)NC(=O)[C@H](CC(=O)O)NC(=O)OCc1ccccc1)C(=O)N[C@H](/C=C/S(=O)(=O)c1ccccc1)CC(=O)O [Compound 63, Z-Asp-Ala(2′-quinolyl)-Val-Aspphenyl vinyl sulfone]",> 3.33 µM,0.04 µM,> 3.33 µM,1.8 µM,> 3.33 µM,0.9 µM,"inhibitory activity for caspase-1 [1, 12]: No significant inhibitory activity; selectivity of Caspase-3 over Caspase-7 based on IC50 values ([2]; IC50 caspase-7 versus caspase-3): ~50 fold; inhibitory activity for caspase-5 [3, 12]: No significant inhibitory activity; inhibitory activity for caspase-9 [5, 12]: No significant inhibitory activity"

# Reference: patent publication US9045524B2, “Selective caspase inhibitors and uses thereof” (NOVAGENESIS FOUNDATION, priority 2009, dated 2015)
